# Laboratory results as given in PubChem BioAssay AID1259408 (Genetic Toxicology Data Bank (GENE-TOX), 2018).
# Active and inactive are the calls of the source. How the calls were made is not given here.
# Tested on: GENE-TOX genotoxicity assays, various organisms and cells
# Test: GENE-TOX mutagenicity studies
# Details: for call: Assay Type: In vivo carcinogenicity studies
# [1] = Species/Cell Type: Salmonella typhimurium (one or more of the five standard strains: TA98, TA100, TA1535, TA1537, and TA1538), Assay Type: Histidine reverse gene mutation, Ames assay, Assay Code: SALT, Evaluation Type: Evaluation A (Pre-1980)
# [2] = Species/Cell Type: Nonhuman, Assay Type: Sister-chromatid exchange (SCE) in vivo, Assay Code: SC3+, Evaluation Type: Evaluation B (Post-1980)
# [3] = Species/Cell Type: Allium cepa, Assay Type: Chromosome aberrations, Assay Code: ALC+, Evaluation Type: Evaluation A (Pre-1980)
# [4] = Species/Cell Type: Chinese hamster lung (V79) cells, Assay Type: Forward gene mutation at the HPRT or ouabain locus, Assay Code: V79+, Evaluation Type: Evaluation A (Pre-1980)
# [5] = Species/Cell Type: Drosophila melanogaster, Assay Type: Sex-linked recessive lethal gene mutation, Assay Code: SRL+, Evaluation Type: Evaluation A (Pre-1980)
# [6] = Species/Cell Type: Rodents, Sex: Male, Assay Type: Dominant lethal test, Assay Code: DLT-, Evaluation Type: Evaluation A (Pre-1980)
# [7] = Species/Cell Type: Mammalian polychromatic erythrocytes, Assay Type: Micronucleus test, chromosome aberrations, Assay Code: MNTT, Evaluation Type: Evaluation A (Pre-1980)
# [8] = Species/Cell Type: Neurospora crassa, Assay Type: Aneuploidy, chromosome aberrations, Assay Code: NEN-, Evaluation Type: Evaluation A (Pre-1980)
# [9] = Species/Cell Type: Salmonella typhimurium (one or more of the five standard strains: TA98, TA100, TA1535, TA1537, and TA1538), Assay Type: Histidine reverse gene mutation, Ames assay, Assay Code: SAL-, Evaluation Type: Evaluation A (Pre-1980)
# [10] = Species/Cell Type: Nonhuman, Assay Type: Sister-chromatid exchange (SCE) in vitro, Assay Code: SC2+, Evaluation Type: Evaluation B (Post-1980)
# [11] = Species/Cell Type: Syrian hamster embryo (SA7/SHE) cells, Assay Type: Cell transformation, viral enhanced, Assay Code: CT7+, Evaluation Type: Evaluation A (Pre-1980)
# [12] = Species/Cell Type: Human diploid fibroblasts, Assay Type: Unscheduled DNA synthesis (UDS) in vitro, DNA effects, Assay Code: UDH+, Evaluation Type: Evaluation A (Pre-1980)
# [13] = Species/Cell Type: Salmonella typhimurium (one or more of the five standard strains: TA98, TA100, TA1535, TA1537, and TA1538), Assay Type: Histidine reverse gene mutation, Ames assay, Assay Code: SAL+, Evaluation Type: Evaluation A (Pre-1980)
# [14] = Species/Cell Type: Nonhuman, Assay Code: CCGT, Evaluation Type: Evaluation A (Pre-1980)
# [15] = Species/Cell Type: Salmonella typhimurium (one or more of the five standard strains: TA98, TA100, TA1535, TA1537, and TA1538), Assay Type: Histidine reverse gene mutation, Ames assay, Assay Code: SAL+*, Activation: With metabolic activation, Evaluation Type: Evaluation A (Pre-1980)
smiles,measurement,setting,value
O=C1CN=C(c2ccccc2Cl)c2cc([N+](=O)[O-])ccc2N1,mutagenic call,"Species/Cell Type: Salmonella typhimurium, Assay Type: Forward and reverse gene mutation, body fluid assay, Assay Code: BFU-, Evaluation Type: Evaluation A (Pre-1980)",inactive; negative
same,mutagenic call,"Species/Cell Type: Salmonella typhimurium, Assay Type: Forward and reverse gene mutation, host-mediated assay, Assay Code: HMA-, Evaluation Type: Evaluation A (Pre-1980)",inactive; negative
Oc1ccc(Cl)cc1Cl,mutagenic call,[1],no conclusion
c1ccc2c(c1)-c1cccc3c1c-2cc1ccccc13,call,"Species/Cell Type: Nonhuman, Assay Code: CCG+, Evaluation Type: Evaluation A (Pre-1980)",active; positive
same,mutagenic call,[2],active; positive
same,mutagenic call,"Species/Cell Type: Nonhuman, Assay Type: Sister-chromatid exchange (SCE) in vivo, Assay Code: SC3T, Evaluation Type: Evaluation A (Pre-1980)",no conclusion
BrBr,mutagenic call,[3],active; positive
CN1CCN(N=O)CC1,mutagenic call,[4],active; positive
same,mutagenic call,[5],active; positive
same,mutagenic call,[1],no conclusion
same,mutagenic call,"Species/Cell Type: Salmonella typhimurium, Assay Type: Forward and reverse gene mutation, host-mediated assay, Assay Code: HMA+, Evaluation Type: Evaluation A (Pre-1980)",active; positive
O=C1OC2(c3ccccc31)c1ccc(O)c(Br)c1Oc1c2ccc(O)c1Br,mutagenic call,[1],no conclusion
O=S(=O)(O)c1ccccc1/C=C\c1ccc(-c2ccc(/C=C\c3ccccc3S(=O)(=O)O)cc2)cc1,mutagenic call,[6],inactive; negative
same,mutagenic call,"Species/Cell Type: Saccharomyces cerevisiae, Assay Type: Mitotic recombination or gene conversion, Assay Code: YECT, Evaluation Type: Evaluation A (Pre-1980)",no conclusion
same,mutagenic call,[1],no conclusion
Oc1cccc(O)c1,mutagenic call,[3],active; positive
same,mutagenic call,"Species/Cell Type: Human lymphocytes, Assay Type: Sister-chromatid exchange (SCE) in vitro, Assay Code: SCL-, Evaluation Type: Evaluation B (Post-1980)",inactive; negative
same,mutagenic call,"Species/Cell Type: Human, Assay Type: Sister-chromatid exchange (SCE) in vitro, Assay Code: SC1-, Evaluation Type: Evaluation B (Post-1980)",inactive; negative
same,mutagenic call,[7],no conclusion
same,mutagenic call,[8],inactive; negative
same,mutagenic call,"Species/Cell Type: Nonhuman, Assay Type: Sister-chromatid exchange (SCE) in vitro, Assay Code: SC2T, Evaluation Type: Evaluation B (Post-1980)",no conclusion
same,mutagenic call,"Species/Cell Type: Nonhuman, Assay Type: Sister-chromatid exchange (SCE) in vivo, Assay Code: SC3-, Evaluation Type: Evaluation B (Post-1980)",inactive; negative
same,mutagenic call,[9],inactive; negative
[Cl][Hg][Cl],mutagenic call,"Species/Cell Type: Bacillus subtilis (H17 vs M45), Assay Type: Rec-assay, spot test, DNA effects (bacterial DNA repair), Assay Code: REW+, Evaluation Type: Evaluation A (Pre-1980)",active; positive
same,mutagenic call,"Species/Cell Type: Human lymphocytes, Assay Type: Sister-chromatid exchange (SCE) in vitro, Assay Code: SCL+D, Dose Response: With dose response, Evaluation Type: Evaluation B (Post-1980)",active; positive
same,mutagenic call,"Species/Cell Type: Human, Assay Type: Sister-chromatid exchange (SCE) in vitro, Assay Code: SC1+D, Dose Response: With dose response, Evaluation Type: Evaluation B (Post-1980)",active; positive
same,mutagenic call,[8],inactive; negative
same,mutagenic call,[10],active; positive
same,mutagenic call,"Species/Cell Type: Nonhuman, Assay Type: Sister-chromatid exchange (SCE) in vitro, Assay Code: SC2-, Evaluation Type: Evaluation B (Post-1980)",inactive; negative
same,mutagenic call,[11],active; positive
Oc1cc(O)cc(O)c1,mutagenic call,"Species/Cell Type: Allium cepa, Assay Type: Chromosome aberrations, Assay Code: ALC+D, Dose Response: With dose response, Evaluation Type: Evaluation A (Pre-1980)",active; positive
Nc1ccc(N)cc1,mutagenic call,[3],active; positive
same,mutagenic call,[5],active; positive
same,mutagenic call,"Species/Cell Type: Fischer rat embryo (RLV/1706) cells, Assay Type: Cell transformation, viral enhanced, Assay Code: CTR+, Evaluation Type: Evaluation A (Pre-1980)",active; positive
same,mutagenic call,[7],no conclusion
same,mutagenic call,"Species/Cell Type: Mouse, Sex: Male, Assay Type: Sperm morphology, Assay Code: SPI-, Evaluation Type: Evaluation A (Pre-1980)",inactive; negative
same,mutagenic call,[8],inactive; negative
same,call,"Species/Cell Type: Nonhuman, Assay Code: CCG-, Evaluation Type: Evaluation A (Pre-1980)",inactive; negative
same,mutagenic call,[6],inactive; negative
same,mutagenic call,[11],active; positive
C[C@]12CC[C@H]3[C@@H](CCC4=CC(=O)CC[C@@]43C)[C@@H]1CC[C@@H]2OC(=O)CCC1CCCC1,mutagenic call,"Species/Cell Type: Human, Sex: Male, Assay Type: Sperm morphology, Assay Code: SPH+, Evaluation Type: Evaluation A (Pre-1980)",active; positive
CN=NNc1c(Cl)cc(Cl)cc1Cl,mutagenic call,"Species/Cell Type: Drosophila melanogaster, Assay Type: Sex-linked recessive lethal gene mutation, Assay Code: SRLT, Evaluation Type: Evaluation A (Pre-1980)",no conclusion
NNCCc1ccccc1,mutagenic call,"Species/Cell Type: Human, Sex: Male, Assay Type: Sperm morphology, Assay Code: SPHT, Evaluation Type: Evaluation A (Pre-1980)",no conclusion
same,mutagenic call,[2],active; positive
O=C1NC(=O)C(c2ccc(O)cc2)(c2ccc(O)cc2)N1,mutagenic call,"Species/Cell Type: Mammalian polychromatic erythrocytes, Assay Type: Micronucleus test, chromosome aberrations, Assay Code: MNTT, Evaluation Type: Evaluation B (Post-1980)",no conclusion
O=c1cc[nH]c2ccccc12,mutagenic call,[9],inactive; negative
O=[Se](=O)(O)O,mutagenic call,"Species/Cell Type: Bacillus subtilis (H17 vs M45), Assay Type: Rec-assay, spot test, DNA effects (bacterial DNA repair), Assay Code: REW-, Evaluation Type: Evaluation A (Pre-1980)",inactive; negative
same,mutagenic call,[12],active; positive
same,mutagenic call,"Species/Cell Type: Human lymphocytes, Assay Type: Sister-chromatid exchange (SCE) in vitro, Assay Code: SCLT, Evaluation Type: Evaluation B (Post-1980)",no conclusion
same,mutagenic call,"Species/Cell Type: Human, Assay Type: Sister-chromatid exchange (SCE) in vitro, Assay Code: SC1T, Evaluation Type: Evaluation B (Post-1980)",no conclusion
same,mutagenic call,"Species/Cell Type: Nonhuman, Assay Type: Sister-chromatid exchange (SCE) in vitro, Assay Code: SC2+*, Activation: With metabolic activation, Evaluation Type: Evaluation B (Post-1980)",active; positive
same,mutagenic call,[13],active; positive
Cc1ccc2c(c1)cc1ccccc1[n+]2C,mutagenic call,"Species/Cell Type: Saccharomyces cerevisiae, Assay Type: Forward gene mutation, Assay Code: YEFT, Evaluation Type: Evaluation A (Pre-1980)",no conclusion
c1ccc2c3c4c(ccc5cccc(c54)[C@H]4O[C@@H]34)cc2c1,mutagenic call,[4],active; positive
same,call,[14],no conclusion
same,mutagenic call,[13],active; positive
CNC(=O)Oc1cc(C)c(N(C)C)c(C)c1,call,"Species/Cell Type: Nonhuman, Assay Code: CCG-L, Evaluation Type: Evaluation A (Pre-1980)",inactive; negative
NC(=O)/C=C/c1ccc([N+](=O)[O-])o1,mutagenic call,[12],active; positive
same,mutagenic call,[13],active; positive
Cc1ccc(C2CO2)cc1C (stereo not drawn),mutagenic call,"Species/Cell Type: Escherichia coli WP2, Assay Type: Tryptophan reverse gene mutation, Assay Code: WP2+D, Dose Response: With dose response, Evaluation Type: Evaluation A (Pre-1980)",active; positive
same,mutagenic call,"Species/Cell Type: Escherichia coli WP2 UVRA, Assay Type: Tryptophan reverse gene mutation, Assay Code: WPU+D, Dose Response: With dose response, Evaluation Type: Evaluation A (Pre-1980)",active; positive
Cc1ccc2cc3c(c4c2c1CC4)[C@H](O)[C@@H](O)c1ccccc1-3,mutagenic call,"Species/Cell Type: Chinese hamster lung (V79) cells, Assay Type: Forward gene mutation at the HPRT or ouabain locus, Assay Code: V79-, Evaluation Type: Evaluation A (Pre-1980)",inactive; negative
same,mutagenic call,"Species/Cell Type: Mouse prostate cells, Assay Type: Cell transformation, Assay Code: CTM-, Evaluation Type: Evaluation A (Pre-1980)",inactive; negative
same,call,[14],no conclusion
same,mutagenic call,[15],active; positive
CNC1(c2ccccc2Cl)CCCCC1=O (stereo not drawn),mutagenic call,[1],no conclusion
c1ccc2c(c1)CCc1cc3ccc4c(c3cc1-2)CCCC4,mutagenic call,[15],active; positive
Cc1ncc([N+](=O)[O-])n1C,mutagenic call,[13],active; positive
CC(=O)C1COC(O)C1C (stereo not drawn),mutagenic call,"Species/Cell Type: Nonhuman, Assay Type: Sister-chromatid exchange (SCE) in vitro, Assay Code: SC2+D, Dose Response: With dose response, Evaluation Type: Evaluation B (Post-1980)",active; positive
Oc1ccc2c3c(cccc13)CC2,mutagenic call,[1],no conclusion
O=C(O)c1cc(N=Nc2ccc([N+](=O)[O-])cc2)ccc1O,mutagenic call,[1],no conclusion
C=CC1CO1 (stereo not drawn),mutagenic call,"Species/Cell Type: Nonhuman, Assay Type: Sister-chromatid exchange (SCE) in vivo, Assay Code: SC3+D, Dose Response: With dose response, Evaluation Type: Evaluation B (Post-1980)",active; positive
O.O.O.O.O.[Cd+2].[Cd+2].[Cl-].[Cl-].[Cl-].[Cl-],mutagenic call,[10],active; positive
